Results taken from US20260184689A1, “PIPERIDINE-SUBSTITUTED BENZOIC ACID COMPOUND, AND PHARMACEUTICAL COMPOSITION AND USE THEREOF” (SHANGHAI YISHENG BIOPHARMACEUTICAL COMPANY LIMITED, priority 2022, published 2026).

Columns and labels:
[1] = Pharmacokinetic activity assay in mice; type: in vivo; settings: IV 1 mg/kg, PO 10 mg/kg
Protocol: Experimental objective: The test substance was administered to mice via single-dose intravenous and oral gavage routes, and its plasma concentration was measured to evaluate the pharmacokinetic characteristics in mice.
Experimental animals: C57 mice or other available test mice
IV dose: 1 mg/kg; vehicle: 0.5% DMSO or 0.5% MeOH-5% pharmaceutical grade polyethylene glycol-15 hydroxystearate-PBS
Sample collection: 0.03 mL of blood samples were collected from the saphenous vein in experimental animals by puncture at each time point, and the actual blood collection time was recorded. All blood samples were added to commercially available EDTA-K2 anticoagulant tubes with a specification of 1.5 mL (supplied by Jiangsu Kangjian Medical Apparatus Co., Ltd.). After collection, within half an hour, the blood sample was centrifuged at 4° C., 3000 g for 10 min to aspirate the supernatant plasma, which was put in dry ice immediately, and stored in a refrigerator at −80° C. for LCMS/MS analysis.
Blood sampling points: 5 min, 15 min, 30 min, 1 hour, 2 hours, 4 hours, 6 hours, 8 hours, 12 hours, 20 hours, 24 hours.
Test compounds: positive compound LNP023, the final product of Example 158, the final products (compound 159A and compound 159B) of Example 159, and compound 11 of Example 75.

Complement factor B = Complement factor B (Homo sapiens, UniProt P00751); assay: Optical surface plasmon resonance (SPR) binding affinity assay
Sequence of Complement factor B (P00751 26-764): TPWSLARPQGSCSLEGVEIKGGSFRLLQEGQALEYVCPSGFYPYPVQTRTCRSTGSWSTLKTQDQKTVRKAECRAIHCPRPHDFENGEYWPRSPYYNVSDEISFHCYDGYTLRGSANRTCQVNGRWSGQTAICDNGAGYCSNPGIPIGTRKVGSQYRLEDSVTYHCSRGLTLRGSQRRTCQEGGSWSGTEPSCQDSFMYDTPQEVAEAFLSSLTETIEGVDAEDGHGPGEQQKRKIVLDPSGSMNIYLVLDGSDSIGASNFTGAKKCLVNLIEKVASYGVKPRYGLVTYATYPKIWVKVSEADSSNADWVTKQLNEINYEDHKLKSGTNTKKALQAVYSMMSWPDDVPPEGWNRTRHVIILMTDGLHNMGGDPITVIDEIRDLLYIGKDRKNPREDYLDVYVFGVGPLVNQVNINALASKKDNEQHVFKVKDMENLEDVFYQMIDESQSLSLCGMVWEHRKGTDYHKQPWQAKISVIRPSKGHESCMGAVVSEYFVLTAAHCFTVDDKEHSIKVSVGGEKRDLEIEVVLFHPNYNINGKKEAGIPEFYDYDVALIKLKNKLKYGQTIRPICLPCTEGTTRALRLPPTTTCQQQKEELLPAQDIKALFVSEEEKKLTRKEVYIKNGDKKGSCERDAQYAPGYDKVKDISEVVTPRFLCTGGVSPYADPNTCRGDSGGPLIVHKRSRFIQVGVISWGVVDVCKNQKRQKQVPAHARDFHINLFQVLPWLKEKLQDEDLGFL
Method: The SPR experiment was conducted at 25° C. using PBS buffer supplemented with 0.05% (v/v) P20 and 5% DMSO as the running buffer. The Biacore 8K instrument from GE Healthcare was employed for analysis. The CM3 chip (GE Healthcare) was activated with 400 mM EDC and 100 mM NHS at a flow rate of 30 μL/min for 420 s.

PNH-like erythrocytes = assay: Alternative pathway inhibition assay of PNH-like erythrocyte; type: cell-based; settings: 1 h, AET/anti-CD55 sensitized human erythrocytes, acidified normal human serum pH 6.4, 37° C. 60 min
Text: Principle: PNH, as an indication for complement inhibitors, was typically tested using the Ham test, which states that acidified serum was capable of activating the alternative pathway, leading to hemolysis of PNH erythrocytes, while normal erythrocytes remained unaffected. It was reported in the literature that AET could disrupt the complement regulatory proteins on the surface of normal human erythrocytes, resulting in PNH-like erythrocytes.
Reagents and instrument: PBS buffer, normal human serum (NHS), Alsever's solution, microplate reader, MgCl2, EGTA, EDTA, HCl, normal human erythrocytes, AET; anti-CD-55 antibody (BRIC216; Sigma)
PBS buffer: Potassium dihydrogen phosphate (KH2PO4): 0.24 g/L, disodium hydrogen phosphate (Na2HPO4): 1.44 g/L, sodium chloride (NaCl): 8 g/L, potassium chloride (KCl): 0.2 g/L, pH 7.4
PBSE buffer: PBS, 10 mM EDTA; pH 7.4
PBSMg buffer: PBS, 1 mM Mg++; pH 6.4
10× Mg-EGTA stock solution: 25 mM MgCl2, 80 mM EGTA; pH 6.4
10× EDTA stock solution: 100 mM EDTA; pH 6.4
Method: The inhibition of alternative pathway-mediated erythrocyte lysis was evaluated using an in vitro model of PNH. Normal human erythrocytes were sensitized with 2-aminoethylisothiouronium bromide (AET) to inactivate complement regulatory proteins on the cell surface and induce a PNH-like phenotype.
2 mL of normal human erythrocytes were mixed with 2 mL of Alsever's solution, washed three times with PBS, and centrifuged at 2500×g, with the upper 10% of the erythrocytes being removed each time. The washed 1 mL erythrocytes were sensitized by incubation with 4 mL of 8% w/v AET (pH 8.0) at 37° C. for 10 min, followed by three additional washes with PBS. Subsequently, the concentration of erythrocytes in PBS (erythrocyte stock solution) was adjusted with PBS such that an absorbance of 1.5-2.0 at 412 nm (indicating hemoglobin release) was achieved upon dilution of 10 μL erythrocyte stock solution with 190 μL water.
1.5 mL of the erythrocyte stock solution was mixed with anti-CD55 antibody (BRIC216; Sigma/final concentration of 6.7 μg/mL) and incubated on ice for 30 min. After being washed once with PBS, the treated erythrocytes were resuspended in PBS-Mg to the initial volume of 1.5 mL. The following AP-mediated lysis assay was performed on this erythrocyte preparation with induced PNH phenotype.
The normal human serum was acidified with 0.2 M HCl to pH 6.4, and supplemented with MgCl2 and EGTA to final concentrations of 2.5 and 8 mM, respectively. 80 μL of this serum mixture was mixed with 10 μL of PBS-Mg (negative blank) or 10 μL of samples at various concentrations. Normal human serum was acidified with 0.2 M HCl to pH 6.4, supplemented with EDTA to a final concentration of 10 mM, and 80 μL of this serum mixture was mixed with 10 μL of PBS-Mg (negative blank) as a blank positive control. The sample was incubated with serum on ice for 5 min, and then 10 μL of sensitized erythrocytes were added. The final serum concentration in the reaction mixture was approximately 64% v/v, incubated at 37° C. for 60 min, and the reaction was quenched by adding 50 μL of ice-cold PBS containing 10 mM EDTA. The remaining unlysed cells were centrifuged at 2500×g for 10 min, and 100 μL of the supernatant was transferred to a 96-well plate to measure its absorbance at 412 nm. The amount of hemoglobin released during erythrocyte lysis was thereby quantified. […] represented the relative lysis of PNH-like erythrocytes (expressed in %; set to 0% for the PC sample and 100% for the NC sample). The absorbance was measured using a microplate reader (Molecular Devices SpectraMax 3X). The IC50 value was calculated by applying nonlinear regression with GraphPad Prism 9.0 software from the percentage of hemolysis as a function of the test compound concentration.

CCCC1CCN(C(=O)c2c(OC)cc(C)c3[nH]ccc23)[C@H](c2ccc(C(=O)O)cc2)C1 (mixture of isomers) [Final product of Example 158, 4-((2S)-1-(5-Methoxy-7-methyl-1H-indole-4-carbonyl)-4-propylpiperidin-2-yl)benzoic acid]
clearance rate during in vivo metabolism, compared with LNP023 [1]: comparable or superior | half-life during in vivo metabolism, compared with LNP023 [1]: comparable or superior | Kd (Complement factor B): 5 to 20 nM | IC50 (PNH-like erythrocytes): 50 to 250 nM

CCCC1CCN(C(=O)c2c(OC)cc(C)c3[nH]ccc23)C(c2ccc(C(=O)O)cc2)C1 (single isomer, unassigned) [Compound 159A]
clearance rate during in vivo metabolism, compared with LNP023 [1]: comparable or superior | half-life during in vivo metabolism, compared with LNP023 [1]: comparable or superior | Kd (Complement factor B): 5 to 20 nM | IC50 (PNH-like erythrocytes): 50 to 250 nM

CCO[C@H]1CCN(Nc2c(OC)cc(C)c3[nH]ccc23)[C@H](c2ccc(C(=O)O)cc2)C1 [Compound 11 of Example 75, 4-((2S,4S)-4-Ethoxy-1-((5-methoxy-7-methyl-1H-indol-4-yl)amino)piperidin-2-yl)benzoic acid]
clearance rate during in vivo metabolism, compared with LNP023 [1]: comparable or superior | half-life during in vivo metabolism, compared with LNP023 [1]: comparable or superior | Kd (Complement factor B): 5 to 20 nM | IC50 (PNH-like erythrocytes): 100 to 300 nM
